{"source": "patent US20090076050A1", "about": "“SYNERGISTIC TUMOR-KILLING EFFECT OF RADIATION AND BERBERINE COMBINED TREATMENT IN LUNG CANCER” (CHUNG SHAN MEDICAL U., priority 2007, published 2009)", "key": {"A549 cells [1]": {"system": "A549 cells", "assay": "clonogenic survival assay (linear-quadratic model)", "assay_type": "cell-based, human", "experimental": "(§1) Cells were cultured in phenol-red-free medium and irradiated with a […] (Varian, 21-EX). The radiation was delivered as a single dose ranging from 2 to 8 Gy in an appropriate field size at a dose rate of 400 cGy/min. A 3-cm polystyrene block was used under the petri dishes during each irradiation to allow homogeneous backscattering radiation. Control cells were removed from the incubator and placed for the same period of time under the IR source but without radiation treatment. In the combined treatment mortality tests, berberine was added 2 h prior to irradiation.\n(§2) The enhancing effect of berberine on radio-sensitivity in NSCLC was performed by treating A549 with various concentrations of berberine alone or combined with different dose of IR at 37° C. for 24 h or 48 h followed by MTT assay for cell viability analysis. Thereafter, the medium was changed and incubated with 100 μl MTT (Sigma St Louis, Mo.)/well for 4 h, which was solubilized in isopropanol, and measured spectrophotometrically at 563 nm. […] To further ascertain the effect of berberine on the lethality of IR, clonogenic survival assay was performed to examine long term survival. IR or berberine-treated cells (1000 cells) were plated onto 10 cm tissue culture dish in five replicates. After 14 days, colonies were fixed with methanol, stained with 0.25% crystal violet, and counted if they were consisted of more than 50 cells. The fraction of colonies survived from the irradiation was normalized to that of the corresponding control. The curves were fitted to the data using linear-quadratic model. The data were depicted in FIG. 1C after normalization.\nStatistical significances were analyzed by student t-test or one-way analysis of variance (ANOVA) with post-hock Dunnett's test. P-value≦0.05 was considered statistically significant (Sigma-Stat 2.0, San Rafael, Calif., USA). Survival fraction curve was analyzed by KaleigaGraph 4.0 then fitted to the data using linear-quadratic model. Combination index was analyzed by CalcuSyn."}, "A549 cells [2]": {"system": "A549 cells", "experimental": "as §1\nas §2, with “IR or berberine-treated cells (1000 cells) were plated onto 10 cm tissue culture dish in five replicates.” left out, “The fraction of colonies survived from the irradiation was normalized to that of the corresponding control. The curves were fitted to the data using linear-quadratic model. The data were depicted in FIG. 1C after normalization.” left out"}, "LLC cells": {"system": "LLC cells", "assay": "MTT cell viability, berberine combined with IR, LLC cells", "assay_type": "cell-based", "conditions": "LLC cells (data not shown)", "source_text": "The data were depicted in FIG. 1C after normalization."}, "A549 cells [3]": {"system": "A549 cells", "assay": "electron microscopic analysis of autophagy", "assay_type": "cell-based, human", "conditions": "IR and 5.0 μM berberine, 24 h", "experimental": "Autophagic cell death has been recognized as programmed cell death type II, it has been detected in a variety of cancer cells treated with radiation or chemotherapy. Therefore, it had been examined whether IR treatment combined with berberine induced autophagic cell death in A549 cells by electron microscopic analysis (FIG. 4A). Cells were harvested by trypsinization, and fixed with 2% glutaraldehyde, 4% paraformaldehyde and 1% tannic acid in 0.1 mol/L cacodylate buffer, pH 7.4, for 25 h. The cells were stained with an osmium-thiocarbohydrazide-osmium (OTO). After staining, the cells were dehydrated in a graded series of 70% to 100% EtOH and then immersed serially with 1:1 hexamethyldisilazane and absolute ethanol. […] Autophagy is characterized by the development of AVOs, which is measured by vital staining of acridine orange. […] To quantitate acidic vesicular organelles, Stained cells were collected for the FACScan (Becton Dickinson, San Jose, Calif.) using CellQuest software (Becton Dickinson). Acridine orange-positive cells with bright red fluorescence were detected among A549 cells 24 h after co-treated with berberine and IR (6 Gy), whereas they were sparse among non-treated cells or irradiated cells (FIG. 4B). […]"}}}
{"smiles": "COc1ccc2cc3[n+](cc2c1OC)CCc1cc2c(cc1-3)OCO2", "note": "[berberine, Berberine]", "values": [{"measurement": "decrease in the D0 value", "setting": "A549 cells [1]; 10 μM berberine vs IR alone", "result": 4.2, "unit": "fold"}, {"measurement": "D0 (dose of radiation producing a 37% survival rate)", "setting": "A549 cells [1]; IR + 2.5 μM berberine", "result": 4.01, "unit": "Gy"}, {"measurement": "SF2", "setting": "A549 cells [1]; IR + 2.5 μM berberine", "result": 0.3184}, {"measurement": "D0 (dose of radiation producing a 37% survival rate)", "setting": "A549 cells [1]; IR + 5.0 μM berberine", "result": 2.70, "unit": "Gy"}, {"measurement": "SF2", "setting": "A549 cells [1]; IR + 5.0 μM berberine", "result": 0.2152}, {"measurement": "D0 (dose of radiation producing a 37% survival rate)", "setting": "A549 cells [1]; IR + 10 μM berberine", "result": 1.24, "unit": "Gy"}, {"measurement": "SF2", "setting": "A549 cells [1]; IR + 10 μM berberine", "result": 0.0991}, {"measurement": "cell viability", "setting": "A549 cells [2]; IR applied to cells incubated with berberine, 24 h and 48 h, A549 (FIG. 1B)", "result": "decreased"}, {"measurement": "combination effect on cell viability", "setting": "A549 cells [2]; berberine combined with 6 Gy IR, 24 h, A549 (FIG. 1A)", "result": "conspicuous"}, {"measurement": "dose and time dependent synergic-killing effect", "setting": "LLC cells", "result": "also observed"}, {"measurement": "autophagic vacuoles by electron microscopy", "setting": "A549 cells [3]", "result": "Numerous empty vacuoles and autophagic vacuoles"}]}
